The results in this text go back to patent US6635265B1, “Materials and methods useful for the control of insect larvae” (University of Florida Research Foundation, Inc., priority 1999, dated 2003).

Square brackets hold non-standard residues; d marks the D form. Ends that are not written are not given here.

Assay [1] deals with first instar H. virescens larvae. Nature of the assay: Feeding of first instar H. virescens on TMOF analogs for 14 days. Type of assay: in vivo, Heliothis virescens. To be noted: first instar larvae fed individually 1.6 µg of TMOF analogs for 14 days.
Assay [2] relates to trypsin biosynthesis. The assay is described as follows: Feeding TMOF analogs to fourth instar H. virescens: gut trypsin biosynthesis ([3H]DFP). It counts as in vivo, Heliothis virescens. To be noted: guts of fourth instar larvae after 5 days feeding on 0.8 mg of TMOF analogs. Here is the method: (§1) Larvae were fed for 5 to 14 days and larval weight and trypsin activity were measured at the end of the experimental periods. […] When first instar larvae were fed for 14 days on analogs 15 and 16 (Table 4), an 18% and 26% reduction in weight was observed.

In assay [3] the test system is fourth instar Heliothis virescens. Nature of the assay: Feeding TMOF analogs to fourth instar H. virescens: larval weight. Type of assay: in vivo. To be noted: for Weight Gain / Weight mg ± S.E.M. End: fourth instar larvae fed synthetic food and 0.8 mg of TMOF analogs for 5 days; for larval weight and trypsin biosynthesis (in words): fourth instar larvae fed TMOF analog peptides for 5 days. Here is the method: In both cases a reduction in weight gain and trypsin inhibition was noted (Tables 3 and 4).
as §1

The test system of another assay is mosquito larvae. Nature of the assay: Feeding TMOF and its analogue peptides to mosquito larvae (LD50). Type of assay: in vivo, Aedes aegypti. To be noted: 100 μl microtiter plates, 7 days, diet of autoclaved yeast (1 mg/ml). From the text: TMOF can traverse the gut epithelium, enter the hemolymph and bind a gut receptor (Borovsky, D. and F. Mahmood (1995) “Feeding the mosquito Aedes aegypti with TMOF and its analogs; effect on trypsin biosynthesis and egg development,” Regulatory Peptides 57:273-281.; Borovsky, D., C. A. Powell, J. K. Nayar, J. E. Blalock, and T. K. Hayes (1994) “Characterization and localization of mosquito-gut receptors for trypsin modulating oostatic factor using complementary peptide immunochemistry” FASEB J. 8:350-355.). […] This characteristic permits testing of TMOF and its analogs by feeding them to mosquito and other pest larvae. To determine whether truncated TMOF peptides have an effect on larval growth and development, a series of peptides were synthesized and tested by feeding them to mosquito larvae at concentrations of 0.5 to 5.0 mg/ml (Table 1). Individual, newly hatched Aedes aegypti larvae were maintained in separate microtiter wells on a diet of autoclaved yeast (1 mg/ml). The diet was supplemented with TMOF peptides (Table 1). An identical number of larvae which were maintained on yeast served as a control. […] All control groups survived and larval growth and development was normal. Since larvae swallow only a small portion of the yeast particles that adsorbed the peptides, it is assumed that approximately 1 to 20 ng are taken orally at the high concentrations.

In assay [4] the test system is first instar larvae S. exigua. The assay is described as follows: Inhibition of Spodoptera exigua larval growth by feeding of TMOF. Type of assay: in vivo. Here is the method: The x-axis represents the TMOF concentration and the y-axis represents percentage of growth inhibition.
Individual, first instar larvae S. exigua were maintained in separate petri dishes and were fed on artificial diet blocks of 50 mg on which different concentrations of TMOF (0 to 100 μg) were adsorbed. Larvae were fed for 6 days and larval length was measured every 24 hours and compared with controls that were not fed TMOF. Each experiment was repeated 10 times.

The test system of assay [5] is trypsin biosynthesis. The assay is described as follows: Injecting TMOF-R analogues into second instar Heliothis virescens: trypsin biosynthesis (BApNA). Type of assay: in vivo. To be noted: second instar larvae, 24 hours after injection. Here is the method: TMOF analogues (5 to 8 amino acids in length, and polymers of these analogues) in which Arg was added at the C-terminus were evaluated to determine their effect on larval growth and development. A series of analogues were synthesized and tested by feeding them to mosquito larvae at concentrations of (0.5 to 5.0 mg/ml; Table 4). Concentrations of 2.0 to 0.065 mg/ml were used to feed mosquito larvae and calculate the Lethal Dose at 50% mortality (LD50; Table 4) of the TMOF analogues. […] In both cases larval death and trypsin biosynthesis inhibition was noted (Table 4 and 5). […] The advantage of using short analogues connected by Arg is that they can be digested in the gut into short TMOF analogues that can penetrate the midgut much faster than longer analogues.
Individual second instar larvae of H. virescens were injected with TMOF-R analogues (10 to 0.25 μg per larva) and maintained in separate plastic cups on artificial diet. Twenty-four hours after the injections 3 groups of larvae (3 per group) were assayed for trypsin biosynthesis using BApNA (trypsin specific substrate; Table 5).

In the case of ADAAP (TMOF peptide) [56], in assay [1], the “Number of Dead Larvae” value was determined as 0, the “Weight (mg) ± S.E.M.” value turned out to be 141 ± 9 mg and the “Weight Reduction (%) ± S.E.M.” value is given as 7 ± 0.4%. Further, in the assay with trypsin biosynthesis [2], the “Inhibition (% ± S.E.M.) of trypsin biosynthesis” value is listed as 5 ± 0.6% and the “Trypsin μg ± S.E.M.” value was found to be 2.4 ± 0.3 µg. For the same substance, in assay [3], the “Weight Gain” value is given as 174.1 mg and the “Weight mg ± S.E.M. End” value turned out to be 209.7 ± 12 mg.

On to DYP (TMOF peptide) [24], for which, in assay [1], the “Number of Dead Larvae” value is given as 1, the “Weight (mg) ± S.E.M.” value came to 149 ± 9 mg and the “Weight Reduction (%) ± S.E.M.” value was found to be 9 ± 0.5%. In the assay on trypsin biosynthesis [2], the “Inhibition (% ± S.E.M.) of trypsin biosynthesis” value was found to be 14 ± 1.8% and the “Trypsin μg ± S.E.M.” value is 2.2 ± 0.3 µg. In assay [3], the “Weight Gain” value is 180.5 mg and the “Weight mg ± S.E.M. End” value came to 216.7 ± 13 mg. Moreover, in the assay on mosquito larvae, the “LD50 mM ± S.E.M.” value is 4 1.27 ± 0.17 mM.

For the substance Y(D)DPAP (Y[dD]PAP) [33], in assay [1], the “Number of Dead Larvae” value is 1, the “Weight (mg) ± S.E.M.” value was 152 ± 27 mg and the “Weight Reduction (%) ± S.E.M.” value worked out at 7 ± 1%. In the assay on trypsin biosynthesis [2], the “Inhibition (% ± S.E.M.) of trypsin biosynthesis” value came to 15 ± 1.3% and the “Trypsin μg ± S.E.M.” value came out at 2.1 ± 0.2 µg. Also, in assay [3], the “Weight Gain” value was determined as 153 mg and the “Weight mg ± S.E.M. End” value is given as 188 ± 12 mg. In addition, in the assay on mosquito larvae, the “LD50 mM ± S.E.M.” value was 3 1.2 ± 0.3 mM.

For YDAAP (TMOF peptide) [37], in assay [1], the “Number of Dead Larvae” value was 0, the “Weight (mg) ± S.E.M.” value worked out at 133 ± 7 mg and the “Weight Reduction (%) ± S.E.M.” value turned out to be 18 ± 1%. In assay [1] (listed as 15), the “Weight Reduction (%) ± S.E.M.” value was found to be 18%. In the assay with trypsin biosynthesis [2], the “Inhibition (% ± S.E.M.) of trypsin biosynthesis” value was determined as 17 ± 1.6% and the “Trypsin μg ± S.E.M.” value worked out at 2.1 ± 0.2 µg. Also, in assay [3], the “larval weight and trypsin biosynthesis (in words)” value was “Reductions in larval weight and trypsin biosynthesis were observed”; the “Weight Gain” value is given as 179 mg; the “Weight mg ± S.E.M. End” value is on record as 217 ± 9.5 mg. The “LD50 mM ± S.E.M.” value with mosquito larvae was 3 1.0 ± 0.18 mM.

For the substance YDFAP (TMOF peptide) [39], in assay [1], the “Number of Dead Larvae” value is reported as 1, the “Weight (mg) ± S.E.M.” value is on record as 121 ± 7 mg and the “Weight Reduction (%) ± S.E.M.” value amounted to 26 ± 1.5%. Moreover, in the assay on trypsin biosynthesis [2], the “Inhibition (% ± S.E.M.) of trypsin biosynthesis” value came to 19 ± 1.5% and the “Trypsin μg ± S.E.M.” value came to 2.1 ± 0.2 µg. In addition, in assay [3], the “Weight Gain” value is recorded as 164 mg and the “Weight mg ± S.E.M. End” value stood at 201 ± 12 mg. Also, the “LD50 mM ± S.E.M.” value with mosquito larvae was 3 0.74 ± 0.13 mM.

As for YDP (TMOF peptide) [42], in assay [1], the “Number of Dead Larvae” value came out at 0, the “Weight (mg) ± S.E.M.” value amounted to 157 ± 10 mg and the “Weight Reduction (%) ± S.E.M.” value is reported as 4 ± 0.2%. Further, in the assay with trypsin biosynthesis [2], the “Inhibition (% ± S.E.M.) of trypsin biosynthesis” value amounted to 19 ± 3.2% and the “Trypsin μg ± S.E.M.” value came to 2.1 ± 0.3 µg. In assay [3], the “Weight Gain” value came to 186.3 mg and the “Weight mg ± S.E.M. End” value stood at 223.4 ± 16 mg. Besides, the “LD50 mM ± S.E.M.” value in the assay with mosquito larvae is reported as 5 2.3 ± 0.4 mM.

Consider “YDPAP6 (YDPAPPPPPP; listed as Aedes aegypti) [reference compound]”, for which, in assay [4] (first instar S. exigua fed TMOF (0 to 100 μg) adsorbed on 50 mg artificial diet blocks for 6 days), the “larval growth (larval length) compared with controls” value is “did not grow as fast as the controls”. Also, in assay [4] (first instar S. exigua, 50 mg diet blocks, 6 days), the “amount of TMOF fed at which maximum growth inhibition occurred” value came to 100 µg. Besides, the “Inhibition (% ± S.E.M.) of trypsin biosynthesis” value with trypsin biosynthesis [5] (0.25 μg/injection) was 19.5 ± 0.7%; with trypsin biosynthesis [5] (0.5 μg/injection) it was 11 ± 1%; with trypsin biosynthesis [5] (1 μg/injection), 25 ± 2%; with trypsin biosynthesis [5] (10 μg/injection), 56%. Besides, in the assay on mosquito larvae, the “LD50 mM ± S.E.M.” value is 3 0.2 ± 0.02 mM.

Regarding YDPGP (TMOF peptide) [48], in assay [1], the “Number of Dead Larvae” value turned out to be 2, the “Weight (mg) ± S.E.M.” value was determined as 153 ± 10 mg and the “Weight Reduction (%) ± S.E.M.” value was determined as 6 ± 0.4%. Further, the “Weight Reduction (%) ± S.E.M.” value in assay [1] (listed as 16) came out at 26%. In the assay with trypsin biosynthesis [2], the “Inhibition (% ± S.E.M.) of trypsin biosynthesis” value was determined as 17 ± 1% and the “Trypsin μg ± S.E.M.” value amounted to 2.1 ± 0.1 µg. In assay [3], the “larval weight and trypsin biosynthesis (in words)” value is “Reductions in larval weight and trypsin biosynthesis were observed”; the “Weight Gain” value worked out at 163.1 mg; the “Weight mg ± S.E.M. End” value worked out at 199.8 ± 11 mg. Besides, in the assay with mosquito larvae, the “LD50 mM ± S.E.M.” value is given as 5 1.1 ± 0.18 mM.

Turning to YSPAP (TMOF peptide) [54], in assay [1], the “Number of Dead Larvae” value is 0, the “Weight (mg) ± S.E.M.” value was 168 ± 11 mg and the “Weight Reduction (%) ± S.E.M.” value is reported as 0%. In the assay on trypsin biosynthesis [2], the “Inhibition (% ± S.E.M.) of trypsin biosynthesis” value stood at 19 ± 2% and the “Trypsin μg ± S.E.M.” value was determined as 2.0 ± 0.2 µg. Besides, in assay [3], the “larval weight and trypsin biosynthesis (in words)” value is “Reductions in larval weight and trypsin biosynthesis were observed”; the “Weight Gain” value came to 151 mg; the “Weight mg ± S.E.M. End” value was 188 ± 10.6 mg. Further, the “LD50 mM ± S.E.M.” value in the assay with mosquito larvae is given as 3 1.4 ± 0.03 mM.
